Measurements taken from patent US9623039B2, “Treatment and prevention of pathological conditions using iduna related techniques and compositions” (VALTED, LLC, priority 2010, dated 2017).
Where a SMILES comes first, the peptide text is derived from it. The star is where a group is joined. Cbz = O=C(OCc1ccccc1)*; CH2F = FC*

Columns and labels:
primary neurons = assay: H2O2-induced cell death in primary neurons; type: cell-based, mouse
Description: FIGS. 44 and 45—Iduna protects against peroxide-induced cell death in primary neurons. Primary neuronal cultures were transduced with lentiviruses expressing GFP, GFP-Iduna or GFP-Iduna-YRAA. 4 days following lentiviral transduction, cultures were treated with H2O2 (100 μM or 500 μM) and cell death assessed 24 h later using PI and Hoechst staining.
Cell Death Assessment: Following exposure of neuronal cultures to the various treatments neuronal survival was quantified and presented as percent of cell death. Percent cell death was determined as the ratio of live-to-dead cells compared with the percent cell death in control wells to account for cell death attributable to mechanical stimulation of the cultures. Quantification of neuronal survival was determined by staining treated cultures with 5 μM Hoechst 33342 and 2 μM propidium iodide (PI) (Invitrogen, Carlsbad, Calif.). Culture plates were placed on a mechanized stage of a Zeiss microscope and photomicrographs were collected by a blinded observer. The numbers of total and dead (PI positive) cells were counted by automated computer assisted software (Axiovision 4.6, Zeiss, Germany). The raw counts are presented in an Excel file for generation of percent cell death and statistical analysis. Glial nuclei fluoresce at a lower intensity than neuronal nuclei and were gated out by the software program. […]

MCF7 cells = assay: Laser micro-irradiation-induced DNA damage, recruitment of GFP-Iduna; type: cell-based, human; conditions: 405 nm laser microirradiation
Description: Live-cell imaging and Laser micro-irradiation-induced DNA damage: For induction of localized DNA damage, MCF 7 cells stably expressing GFP-Iduna or GFP-Iduna-YRAA were plated onto 25 mm glass bottom culture dishes for 48 h. Cells were presensitized with 10 μM 5-bromo-2′-deoxyuridine (BrdU, Sigma) for 24 h. Cells were incubated with 2 μM Hoechst (Invitrogen) for 5 min and mounted on a preheated (37° C.) stage on a Zeiss LSM 710 confocal microscope equipped with 405 nm laser source. A laser microbeam was focused on a small rectangular strip of nucleus through 63× oil objective to induce localized DNA damage. The laser setting was set to 100% power output with a scanning speed of 1 and 6-10 laser iterations. The kinetics were calculated using Zeiss Zen 2010 software. Time point before irradiation represents—1 min and the time point just after irradiation represent 0 min. Each data series was normalized with respect to base line data intensity values.

neuronal cultures = assay: Caspase-dependent cell death (camptothecin, staurosporine) in neuronal cultures; type: cell-based, mouse; conditions: for protection against cell death: 24 h
Description: (§1) FIG. 42—Neuronal cultures expressing lenti-viral mediated GFP, GFP-Iduna or GFP-Iduna-YRAA were treated with camptothecin (CPT, 20 μM) and cell death assessed 24 h later using PI and Hoechst staining. […] Data represent the mean±SEM, n=4 of two independent experiments. *p<0.05 by ANOVA with Tukey-Kramer's posthoc test.
as §1, with “43—Neuronal” for “42—Neuronal”, “staurosporine (STS, 500 nM)” for “camptothecin (CPT, 20 μM)”
Cell Death Assessment: Following exposure of neuronal cultures to the various treatments neuronal survival was quantified and presented as percent of cell death. Percent cell death was determined as the ratio of live-to-dead cells compared with the percent cell death in control wells to account for cell death attributable to mechanical stimulation of the cultures. Quantification of neuronal survival was determined by staining treated cultures with 5 μM Hoechst 33342 and 2 μM propidium iodide (PI) (Invitrogen, Carlsbad, Calif.). Culture plates were placed on a mechanized stage of a Zeiss microscope and photomicrographs were collected by a blinded observer. The numbers of total and dead (PI positive) cells were counted by automated computer assisted software (Axiovision 4.6, Zeiss, Germany). The raw counts are presented in an Excel file for generation of percent cell death and statistical analysis. Glial nuclei fluoresce at a lower intensity than neuronal nuclei and were gated out by the software program. At least two separate experiments using four separate wells were performed for all data points.

PARP-1 = target: T1, PARP-1 (Homo sapiens, UniProt P09874); assay: Chemiluminescent PARP assay (biotinylated PAR onto histone); type: biochemical; conditions: incorporation of biotinylated PAR onto histone proteins
T1 construct: purchased Trevigen
T1 sequence (P09874 whole entry): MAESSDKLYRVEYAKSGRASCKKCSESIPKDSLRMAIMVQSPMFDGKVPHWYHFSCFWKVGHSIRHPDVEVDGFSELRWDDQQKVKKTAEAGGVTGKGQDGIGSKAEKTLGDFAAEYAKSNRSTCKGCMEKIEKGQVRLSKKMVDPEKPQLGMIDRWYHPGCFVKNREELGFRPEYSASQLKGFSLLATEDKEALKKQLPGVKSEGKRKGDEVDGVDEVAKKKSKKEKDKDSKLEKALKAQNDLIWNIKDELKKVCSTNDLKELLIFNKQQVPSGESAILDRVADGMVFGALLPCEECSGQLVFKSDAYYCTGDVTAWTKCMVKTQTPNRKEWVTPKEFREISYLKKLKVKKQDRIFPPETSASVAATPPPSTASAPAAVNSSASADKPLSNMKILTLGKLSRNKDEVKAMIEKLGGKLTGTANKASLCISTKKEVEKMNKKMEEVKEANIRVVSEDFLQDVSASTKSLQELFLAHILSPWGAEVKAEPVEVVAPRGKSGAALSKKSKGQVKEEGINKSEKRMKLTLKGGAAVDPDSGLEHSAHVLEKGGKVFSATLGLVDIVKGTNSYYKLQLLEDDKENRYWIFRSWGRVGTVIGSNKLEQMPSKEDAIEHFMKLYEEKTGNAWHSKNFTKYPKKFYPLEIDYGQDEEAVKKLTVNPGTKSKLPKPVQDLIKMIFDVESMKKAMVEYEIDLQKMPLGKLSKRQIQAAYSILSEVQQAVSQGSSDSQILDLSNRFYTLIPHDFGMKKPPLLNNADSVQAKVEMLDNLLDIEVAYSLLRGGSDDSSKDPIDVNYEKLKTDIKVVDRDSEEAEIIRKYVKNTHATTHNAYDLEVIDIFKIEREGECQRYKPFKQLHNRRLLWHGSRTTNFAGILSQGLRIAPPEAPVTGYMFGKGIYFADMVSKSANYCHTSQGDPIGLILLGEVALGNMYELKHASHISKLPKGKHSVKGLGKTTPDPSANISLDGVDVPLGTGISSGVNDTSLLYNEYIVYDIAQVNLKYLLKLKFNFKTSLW
Description: Because PARP-1 activation plays a prominent role in NMDA excitotoxicity we tested whether PARP-1 activity is directly affected by Iduna. PARP-1 activity was assessed by incorporation of biotinylated PAR onto histone proteins.
Chemiluminescent PARP assay for poly(ADP-ribosyl)ation of Histone H1: Activity of PARP-1 was determined by Trevigen Universal chemiluminescent PARP assay kit (Trevigen, Gaithersburg, Md., USA) in the presence of Iduna or the PARP-1 inhibitor 3-aminobenzamide (3-AB). According to manufacturer's instructions, the incorporation of biotinylated NAD+ (Trevigen) into the poly(ADP-ribose) polymer primed at solid phase immobilized histone H1 (Trevigen) was detected by the chemiluminescent assay, either in the presence or absence of recombinant Iduna. Reactions were performed with 34 μM total biotinylated NAD+ for 60 min at 25° C. in triplicates. Chemiluminescence was measured using a fluorescence multi-well plate reader (SOSTmax, Sunnyvale, Calif.) with an excitation at 544 nm excitation/590 nm emission. In the parallel wells, PARP1 activity was measured after the 3-aminobenzamide treatment at the same concentration of biotinylated NAD+ (34 μM).

PAR polymer = PAR polymer overlay / dot blot (far western); type: binding; conditions: PAR polymer overlay assay
Description: PAR binding is specified by a sequence of approximately 20 amino acids containing N-terminal basic amino acids and a C-terminal region containing alternating hydrophobic and basic amino acids (FIG. 24). Iduna contains a predicted PAR polymer binding sequence within amino acids 144-167 of the WWE domain (FIGS. 1 and 24). The PAR-binding domain was defined by comparing to the consensus sequence for PAR-binding and the known PAR binding domain of Histone 3 (FIG. 24). HEK293 cells were transfected with GFP, GFP-Iduna lacking the WWE domain (GFP-IdunaΔWWE), GFP-Iduna lacking the RF domain (GFP-IdunaARF), and full-length GFP-Iduna, followed by immunoprecipitation with a GFP antibody. […] Only GFP-Iduna-ARF and full-length GFP-Iduna can co-immunoprecipiate PAR binding proteins (FIG. 25). The critical amino acids in the PAR binding domain, 156Y and 157R, were mutated to 156A and 157A in full length Iduna (Iduna-YRAA). […] Similar results are obtained with a biotin-tagged PAR polymer followed by detection with an anti-biotin antibody (FIG. 26). […] Histone H3 is a known PAR binding protein and was used as a positive control for the PAR overlay assay. […] An assay based on electrophorectic mobility shift (EMSA) for PAR binding was developed to monitor PAR polymer binding to Iduna. […]

O=C1NCCc2c(OCCCCN3CCCCC3)cccc21 [DPQ]
protection against H2O2 toxicity (primary neurons; 100 μM H2O2): only protected against 100 μM H2O2 toxicity | protection against H2O2 toxicity (primary neurons; 500 μM H2O2): Neither GFP-Iduna nor DPQ protect

CN(C)Cc1ccc(-c2nc3cccc4c3n2CCNC4=O)cc1 [AG14361]
recruitment of GFP-Iduna to laser-induced DNA breaks (MCF7 cells): blocks the translocation of Iduna

COC(=O)C[C@H](NC(=O)[C@H](C)NC(=O)[C@@H](NC(=O)OCc1ccccc1)C(C)C)C(=O)CF [z-VAD fmk] (Cbz-Val-Ala-Asp(OMe)-CH2F)
protection against cell death (neuronal cultures; camptothecin 20 μM): provides protection | apoptotic cell death (neuronal cultures; staurosporine 500 nM or camptothecin 20 μM): inhibited cell death | protection against cell death (neuronal cultures; staurosporine 500 nM): provides protection

NC(=O)c1cccc(N)c1 [3-AB, 3-aminobenzamide, reference compound]
PARP-1 activity (PARP-1): inhibits PARP-1 activity

Iduna 144-167: synthesized peptide fragment of the predicted PAR polymer binding sequence, amino acids 144-167 of the WWE domain (LYVADLENMVQYRRNEHGRRRKIK; UniProt Q9NTX7 144-167, looked up, fragment)
PAR polymer binding (PAR polymer): binds to PAR polymer in a manner comparable to full-length Iduna
